{
  "source": "patent US6893829B2",
  "about": "“Human leukocyte 12-lipoxygenase and its role in the pathogenesis of disease states” (City of Hope, priority 1992, dated 2005)",
  "key": {"MO binding to HAEC": {"test_system": "MO binding to HAEC", "test": "Monocyte binding to human aortic endothelial cells", "type": "cell-based", "procedure": "The rate of atherosclerosis is accelerated in humans with diabetes mellitus (DM). Applicants recently published evidence that high glucose (HG) exposure of human aortic endothelial cells (HAEC) selectively increases monocyte (MO) but not neutrophil binding (56). HG exposure to EC can increase arachidonic acid (AA) release and lipoxygenase (LO) production formation. In the current study, applicants evaluated the role of 12- and 15-LO products in MO binding to HAEC. Culture of HAEC in HG (25 mM) for two passages increased MO binding compared to cells maintained in 5.5 mM glucose (239±30 cells/field HG vs 111±7, p<0.01). Phenidone (10^−6M), an inhibitor of the 12-LO pathway (50 percent inhibition of HG-induced binding, p<0.05). […] 12(S)-HETE added to HAEC cultured in 5.5 mM glucose increased MO binding (66±6 cells/field control vs 114±4 12-HETE 10^−10M, p<0.01). […] In summary, (1) elevated glucose increases MO binding to HAEC and this effect can be reduced by blockade of the LO pathway; (2) 12 but not 15-LO products, can increase MO binding."}, "[1]": {"test": "Calcium gluconate infusion: urinary PGI2 and 12-HETE", "type": "in vivo, human", "text": "Vascular tissue from diabetic animals and man metabolize arachidonic acid differently from normals. PGI2 is a vasodilator, antithrombolic, and renin secretagogue while 12-hydroxyeicosatetraenoic acid (12-HETE) is proinflammatory and inhibits cyclooxygenase (CO). Applicants earlier reported a prostacyclin (PGI2) deficiency in diabetics with hyporeinemic hypoaldosteronism (HH) (46). Applicants explored the production of the CO product, PGI2 and the lipoxygenase (LO) product, 12-HETE in NIDDM patients with normal renal function (NR), those with microalbuminuria (MiA0, macroabluminuria (MaA) and HH patients. PGI2 (6 keto PGF^1) and 12-HETE were measured in urine by HPLC followed by RIA using published methods. Results are:\nLow dose calcium infusions have been previously shown to increase PGI2, probably via activation of tissue phospholipases. […] This supports the concept that a defect in prostacyclin formation exists in NIDDM."}, "[2]": {"test_system": "12-HETE in L6 muscle cells", "test": "12-HETE in L6 muscle cells", "type": "cell-based, rat", "conditions": "n = 2", "procedure": "6. […] L6 muscle cells are skeletal muscle cells from rats which have been used to investigate the mechanisms of insulin action. When L6 muscle cells are incubated in xylose (5.5, mM), they are much more responsive to insulin when compared to cells in regular glucose (5.5 mM) or high glucose (25 mM). […] Thus, elevated 12-Lipoxygenase products, such as 12-HETE, appear to play an important role in reduced insulin metabolic actions caused by high glucose."}, "[3]": {"test_system": "VEGF in vascular smooth muscle cells (VSMC)", "test": "VEGF protein, mRNA and secretion in VSMC (Western, Northern, EIA)", "type": "cell-based, Porcine and human", "procedure": "In addition to the work reflected in FIGS. 8-10, it has now been discovered that AII, 12-HETE and hyperglycemia (HG) increase VEGF production in vascular smooth muscle cells (VSMC). Porcine and human VSMC were cultured for at least two passages under normal glucose (NG, 5.5 mM) or under HG conditions. VEGF protein expression was determined by Western blotting and VEGF mRNA by Northern blots. HG alone increased the level of VEGF mRNA (2.8-fold) and protein (3.2-fold). […] In addition, HG increased the secretion of VEGF into the medium as measured by a specific EIA (56.2±4 ng/ml NG vs 73±5 HG, p<0.02)."}, "MCF-7 cells": {"test_system": "MCF-7 cells", "test": "Proliferation of MCF-7 cells", "type": "cell-based, human", "conditions": "baicalein 10 μM, CDC 10^−5M, NDGA 30 μM, ibuprofen 10^−5M"}, "MAP kinase activity": {"test_system": "MAP kinase activity", "test": "AII- and 12-HETE-induced mitogenic (MAP kinase) activities with 12-LO inhibitors", "type": "cell-based, Chinese hamster", "procedure": "It has been discovered that the administration of AII results in biphasic activation of MAP kinase (all of the MAP kinase experiments were conducted in CHO-AT1a cells—AII receptor AT1a cDNA transfected Chinese hamster ovary cells). […] Thus, the administration of a 12-LO inhibitor decreases AII- and/or 12-HETE-induced MAP kinase activity, thereby decreasing the effects which AII and/or 12-HETE have on cell growth and development."}, "[4]": {"test_system": "VEGF protein in MCF-7 cells", "test": "VEGF protein expression in breast cancer cells (immunoblot)", "type": "cell-based, human", "conditions": "MCF-7, 24 hours", "procedure": "FIG. 8 illustrates the dose-dependent effect of platelet-derived growth factor (PDGF) on vascular endothelial growth factor (VEGF) protein (42 kD) expression in MCF-7 breast cancer cells. Nearly confluent MCF-7 cells were serum starved for 24 hours by placing in DME medium+0.4% FCS and 0.2% BSA. This medium was then freshly replaced and the cells incubated for another 24 hours with PDGF. At the end of the incubation, the cell monolayers were washed with ice-cold PBS, scraped into PBS and pelleted by centrifugation. The cell pellets were then lysed and equal amounts of protein (50 μg) subjected to electrophoresis and immunoblotting to detect VEGF using a specific antibody from Santa Cruz Biotechnology. Detection was by a chemiluminiscent technique.\nFIG. 9 illustrates the effect of epidermal growth factor (EGF) and the 12-lipoxygenase product 12-HETE on VEGF protein expression in the MCF-7 breast cancer cell line MCF-7. MCF-7 cells were treated with EGF and 12-HETE for 24 hours and VEGF protein identified as described in the legend to FIG. 8."}, "[5]": {"test_system": "beta sub-unit of the human insulin receptor", "test": "Insulin receptor phosphorylation in rat-1-fibroblasts containing the human insulin receptor", "type": "cell-based", "conditions": "baicalein 10^−6M, last 24 hours", "procedure": "7. Baicalein, a selective 12-LO inhibitor, can prevent glucose-induced insulin resistance. To perform these studies, applicants cultured rat-1-fibroblasts that have been engineered to contain the human insulin receptor for ten days in high glucose (25 mM). For the last 24 hours, the cells were cultured with 10^−6M baicalein. The marked bands represent the phosphorylated beta sub-unit of the human insulin receptor (FIG. 23). As the band becomes lighter, it represents reduced insulin action. Lane 1 represents the insulin receptor phosphorylation in normal glucose (5.5 mM) vs the reduced insulin action in lane 5 (25 mM glucose)."}, "12-LO activity in HSMC": {"test_system": "12-LO activity in HSMC", "test": "12-HETE release and cell-associated 12-HETE in HSMC (HPLC/RIA)", "type": "cell-based, human", "conditions": "baicalein 10^−5 mol/L, data not shown", "procedure": "FIG. 3A illustrates the effect of AII on 12-HETE release by HSMC. HSMC were grown to confluency. Serum was removed and cells were incubated in media 199 containing 0.4% fetal bovine serum (FBS) and 0.2% BSA for 18 hours. Cells were then washed with DME media and incubated for 20 minutes in DME media containing 0.2% BSA. AII was added to the cells for five and ten minutes at the concentrations of 10^−9 and 10^−8 mol/L. Media were collected for HETE assay. • *p<0.05 vs control n=4\nFIG. 3B illustrates the effect of AII on cell-associated 12-HETE levels in HSMC. After collecting supernatants, cells were washed with ice-cold PBS and harvested by scraping for the assay of cell-associated HETEs. • *p<0.02 vs control n=4\nHSMC and HAEC monolayers were washed twice with ice-cold PBS and then processed for RNA extraction or western analysis as described below. For hydroxyeicosatetraenoic acid (HETE) assay, approximately 24 hours prior to an experiment, the medium was replaced with medium 199 containing 0.4% FBS and 0.2% BSA.\nThese assays were performed using previously published methods (10,11). Briefly, 12- and 15-HETE are extracted from supernatants and cells on C18 mini columns (Analytichem International, CA) and measured using our validated reverse phase gradient HPLC and (RIA) methods.\nAnother major aspect of this invention is the discovery that AII increases the activity and expression of 12-LO mRNA and protein in HSMC."}, "[6]": {"conditions": "NIDDM patients with microalbuminuria"}, "[7]": {"conditions": "normal subjects, three hour infusion"}},
  "data": [
    {"compound": "12(R)-Hydroxyeicosatrienoic acid", "values": [
      {"measurement": "lowest concentration showing effects on MO binding", "setting": "MO binding to HAEC", "value": "10^−12 M"}
    ]},
    {"compound": "calcium gluconate", "values": [
      {"measurement": "12-HETE", "setting": "[1]; [6]", "value": "further stimulation"},
      {"measurement": "PGI2", "setting": "[1]; [6]", "value": "no increase"},
      {"measurement": "12-HETE", "setting": "[1]; [7]", "value": "highly significant increase"},
      {"measurement": "PGI2", "setting": "[1]; [7]", "value": "highly significant increase"}
    ]},
    {"compound": "O=C[C@H](O)[C@@H](O)[C@H](O)[C@H](O)CO", "note": "[HG, glucose]", "values": [
      {"measurement": "12-HETE in the cells", "setting": "[2]; high glucose 25 mM", "value": 620, "unit": "pg/total cells"},
      {"measurement": "12-HETE release in the media", "setting": "[2]; high glucose 25 mM", "value": 110.3, "unit": "pg/mL"},
      {"measurement": "12-HETE in the cells", "setting": "[2]; regular glucose 5.5 mM", "value": 472, "unit": "pg/total cells"},
      {"measurement": "12-HETE release in the media", "setting": "[2]; regular glucose 5.5 mM", "value": 101.8, "unit": "pg/mL"},
      {"measurement": "MO binding", "setting": "MO binding to HAEC; HAEC in HG 25 mM for two passages, 5.5 mM glucose 111±7", "value": "239±30", "unit": "cells/field"},
      {"measurement": "level of VEGF mRNA", "setting": "[3]; HG alone vs NG 5.5 mM", "value": 2.8, "unit": "fold"},
      {"measurement": "level of VEGF protein", "setting": "[3]; HG alone vs NG 5.5 mM", "value": 3.2, "unit": "fold"},
      {"measurement": "secretion of VEGF into the medium (EIA)", "setting": "[3]; HG, NG 56.2±4", "value": "73 ± 5", "unit": "ng/mL"}
    ]},
    {"compound": "CC(C)Cc1ccc(C(C)C(=O)O)cc1", "note": "(centres unmarked) [ibuprofen]", "values": [
      {"measurement": "proliferation of MCF-7 cells", "setting": "MCF-7 cells", "value": "not"}
    ]},
    {"compound": "CCCCC[C@H](O)/C=C/C=C\\C/C=C\\C/C=C\\CCCC(=O)O", "note": "[15(S)-HETE]", "values": [
      {"measurement": "MO binding to HAEC", "setting": "MO binding to HAEC; 15(S)-HETE 10^−6 to 10^−12M", "value": "did not stimulate"}
    ]},
    {"compound": "CC(Cc1ccc(O)c(O)c1)C(C)Cc1ccc(O)c(O)c1", "note": "(centres unmarked) [NDGA]", "values": [
      {"measurement": "proliferation of MCF-7 cells", "setting": "MCF-7 cells", "value": "significantly inhibited"}
    ]},
    {"compound": "O=C1CCN(c2ccccc2)N1", "note": "[Phenidone]", "values": [
      {"measurement": "inhibition at 1 µM", "setting": "MO binding to HAEC; Homo sapiens, Phenidone 10^−6M, read-out: inhibition of HG-induced MO binding", "value": 50, "unit": "%"}
    ]},
    {"compound": "N#C/C(=C\\c1ccc(O)c(O)c1)C(=O)OC/C=C/c1ccccc1", "note": "[CDC]", "values": [
      {"measurement": "proliferation of MCF-7 cells", "setting": "MCF-7 cells", "value": "significantly inhibited"},
      {"measurement": "AII- and 12-HETE-induced mitogenic activities", "setting": "MAP kinase activity", "value": "dose-dependently reduce"}
    ]},
    {"compound": "PDGF", "values": [
      {"measurement": "VEGF protein expression", "setting": "[4]", "value": "dose-dependent increase"}
    ]},
    {"compound": "O=c1cc(-c2ccccc2)oc2cc(O)c(O)c(O)c12", "note": "[baicalein]", "values": [
      {"measurement": "insulin receptor phosphorylation in 25 mM glucose", "setting": "[5]", "value": "restoration of insulin receptor phosphorylation"},
      {"measurement": "proliferation of MCF-7 cells", "setting": "MCF-7 cells", "value": "significantly inhibited"},
      {"measurement": "12-HETE levels in response to AII", "setting": "12-LO activity in HSMC", "value": "could be reduced"},
      {"measurement": "AII- and 12-HETE-induced mitogenic activities", "setting": "MAP kinase activity", "value": "dose-dependently reduce"}
    ]},
    {"compound": "O=C[C@H](O)[C@@H](O)[C@H](O)CO", "note": "[Xylose, xylose]", "values": [
      {"measurement": "12-HETE in the cells", "setting": "[2]; xylose 5.5 mM", "value": 398, "unit": "pg/total cells"},
      {"measurement": "12-HETE release in the media", "setting": "[2]; xylose 5.5 mM", "value": 53.2, "unit": "pg/mL"}
    ]}
  ]
}
